Laboratory results from patent US5300284A, “Glycosaminoglycanase inhibitor andethane diol composition for maintenance of hair growth” (priority 1991, dated 1994).

Assay: Flow-through skin penetration of 14C-labelled glucarolactone
Format: in vitro ADME, pig
Conditions: 20 hours
From the text: In order to simulate human skin penetration in vivo, full thickness pig skin was used in a flow-through skin penetration cell system. For this purpose, the technique described by Bronough R L, and Stuart R F in "Methods for in vitro percutaneous absorption studies IV: The flow-throughdiffusion cell", published in J. Pharm.
This system allows for the study of percutaneous absorption from topically applied substances in a controlled manner, i.e. at controlled temperature and with constant receptor fluid flow rate. The flow-through skin penetration cell has a surface area of skin of 0.38 cm^2 exposed to a formulation containing a test substance. At time zero, 25 μl of a formulation containing tracer amounts of ^14 C-labelled glucarolactone was applied to the skin and left for 20 hours. During this period of penetration, receptor fluid flowing underneath the dermal side of the skin was collected in fractions at 2 hour intervals. At time 20 hours, the skin was vigorously washed to remove all non-absorbed material, the remaining receptor fluid in the cell also being collected at this time.
Subsequently, the piece of skin was detached from the cell and keratatomed at a thickness of about 1.3 mm. This procedure will separate the lower section of the dermis from that containing the stratum corneum, viable epidermis, upper part of dermis and neck of hair follicle. To refine further the picture of distribution of radioactivity, the upper section was subsequently tape stripped 5 times using transparent adhesive tape to remove residual radioactive materials adhering to the outer surface of the skin. All these sections were digested and counted for radioactivity. Each penetration cell therefore yielded 4 results:
i) transdermal penetration, i.e. the amount retrieved in receptor fluid flowing on the dermal side of the skin;
ii) tape strips, i.e. amounts of radio active material adhering to the skin surface;
iii) upper section of skin, i.e. remainder of stratum corneum, neck of hair follicle, viable epidermis and upper part of dermis;
iv) lower section of skin, i.e. remainder of dermis containing the remaining part of hair follicles and dermal papillae.
The results obtained from categories ii), iii) and iv) above together constitute the amounts retrieved from within the skin, i.e. dermal penetration. The results may be expressed as percentage of dose applied, or as the actual amounts delivered.
The following formulation was used to determine penetration and delivery of glucarolactone in accordance with the Bronaugh flow-through skin penetration cell technique:
Scintillation counting was employed to determine the amount of the enzyme inhibitor, glucarolactone, which had penetrated the skin to a point where it would be available to inhibit glycosaminoglycanase in the immediate environment of the hair bulb.
The results obtained are shown in the following Table 1 in which the values given represent percentages of the glucarolactone dose applied topically which actually penetrates into and through the skin and is recovered at various levels. In addition, the actual amounts of penetrated glucarolactone is given. The results shown are the average and standard error of the mean of 33 determinations.

[1] = dermal (tapes + upper + lower section), 8% w/w glucarolactone formulation, mean ± SEM of 33 determinations
[2] = lower section of skin (hair follicles, dermal papillae), 8% w/w glucarolactone formulation, mean ± SEM of 33 determinations
[3] = tape strips (skin surface), 8% w/w glucarolactone formulation, mean ± SEM of 33 determinations
[4] = total (transdermal + dermal), 8% w/w glucarolactone formulation
[5] = transdermal (receptor fluid), 8% w/w glucarolactone, 10% ethane diol formulation, mean ± SEM of 33 determinations
[6] = upper section of skin, 8% w/w glucarolactone formulation, mean ± SEM of 33 determinations

Compound: O=C(O)[C@@H](O)[C@H]1OC(=O)[C@H](O)[C@H]1O [glucarolactone]
- Actual Amount GL Delivered, Dermal [1]: 72.87 ± 16.62 µg
- Percentage of Applied Dose, Dermal [1]: 3.719 ± 0.848%
- Actual Amount GL Delivered, lower section [2]: 56.63 ± 14.33 µg
- Percentage of Applied Dose, lower section [2]: 2.890 ± 0.731%
- Actual Amount GL Delivered, tapes [3]: 2.38 ± 0.39 µg
- Percentage of Applied Dose, tapes [3]: 0.122 ± 0.020%
- Actual Amount GL Delivered, Total [4]: 80.67 µg
- Percentage of Applied Dose, Total [4]: 4.117%
- Actual Amount GL Delivered, Transdermal [5]: 7.80 ± 2.47 µg
- Percentage of Applied Dose, Transdermal [5]: 0.398 ± 0.126%
- Actual Amount GL Delivered, upper section [6]: 13.86 ± 3.00 µg
- Percentage of Applied Dose, upper section [6]: 0.707 ± 0.153%
